Source: patent US20220062240A1, “METHODS OF TREATING CANCER USING A CLK INHIBITOR” (BioSplice Therapeutics, Inc., priority 2018, published 2022)
Like-named read-outs stand apart in the source and are kept apart here.

Experiments:
[1] = system: colorectal cancer (6 cell lines); assay: CellTiter-Glo Viability Assay, colorectal cancer; type: cell-based; conditions: Homo sapiens, inhibition of cancer cell proliferation
[2] = system: lung cancer (4 cell lines); assay: CellTiter-Glo Viability Assay, lung cancer; type: cell-based; conditions: Homo sapiens, inhibition of cancer cell proliferation
[3] = system: all 50 cell lines; assay: CellTiter-Glo Viability Assay, average across all cell lines; type: cell-based; conditions: Homo sapiens; across all 50 cell lines; read-out: average EC50 for inhibition of cancer cell proliferation
In short: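 Cells were plated at 300-3,000 per well in their own media, then treated with compound in duplicate, with DMSO wells as controls. After four days at 37° C and 5% CO2, CellTiter-Glo was added, and luminescence was read. EC50s were fitted.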

[4] = system: liver cancer (3 cell lines); assay: CellTiter-Glo Viability Assay, liver cancer; type: cell-based; conditions: Homo sapiens, inhibition of cancer cell proliferation
[5] = system: pancreatic cancer (8 cell lines); assay: CellTiter-Glo Viability Assay, pancreatic cancer; type: cell-based; conditions: Homo sapiens, inhibition of cancer cell proliferation
[6] = system: prostate cancer (5 cell lines); assay: CellTiter-Glo Viability Assay, prostate cancer; type: cell-based; conditions: Homo sapiens
[7] = system: T47D; assay: CellTiter-Glo Viability Assay, breast cancer; type: cell-based; conditions: Homo sapiens, 96 h, breast cancer, four days, read-out: EC50
[8] = system: MCF7; assay: CellTiter-Glo Viability Assay, breast cancer; type: cell-based; conditions: Homo sapiens, 96 h; MCF7, breast cancer, four days; read-out: EC50
[9] = system: DU4475; assay: CellTiter-Glo Viability Assay, breast cancer; type: cell-based; conditions: Homo sapiens, DU-4475, 96 h; DU4475, breast cancer, four days; read-out: EC50
[10] = system: MDA-MB-231-Luc; assay: CellTiter-Glo Viability Assay, breast cancer; type: cell-based; conditions: Homo sapiens, 96 h; MDA-MB-231-Luc, breast cancer, four days; read-out: EC50
[11] = system: ZR-75-1; assay: CellTiter-Glo Viability Assay, breast cancer; type: cell-based; conditions: Homo sapiens, 96 h; ZR-75-1, breast cancer, four days; read-out: EC50
[12] = system: HCC1599; assay: CellTiter-Glo Viability Assay, breast cancer; type: cell-based; conditions: Homo sapiens, 96 h; HCC1599, breast cancer, four days; read-out: EC50
[13] = system: BT-549; assay: CellTiter-Glo Viability Assay, breast cancer; type: cell-based; conditions: Homo sapiens, 96 h; BT-549, breast cancer, four days; read-out: EC50
[14] = system: CAMA1; assay: CellTiter-Glo Viability Assay, breast cancer; type: cell-based; conditions: Homo sapiens, CAMA-1, 96 h; CAMA1, breast cancer, four days; read-out: EC50
[15] = system: haematopoietic & lymphoid tumors (13 cell lines); assay: CellTiter-Glo Viability Assay, haematopoietic & lymphoid tumors; type: cell-based; conditions: Homo sapiens, inhibition of cancer cell proliferation
[16] = system: ovarian cancer (4 cell lines); assay: CellTiter-Glo Viability Assay, ovarian cancer; type: cell-based; conditions: Homo sapiens, inhibition of cancer cell proliferation
[17] = target: T1, CLK2 (Homo sapiens, UniProt P49760); assay: CLK2 kinase activity assay (Z-lyte, Ser/Thr 6 peptide); type: biochemical; conditions: recombinant CLK2 kinase, ATP 60 μM; read-out: EC50
T1 construct: purchased Thermo Fisher (Life Technologies), Z'-LYTE Kinase Assay Kits
T1 sequence (P49760 whole entry): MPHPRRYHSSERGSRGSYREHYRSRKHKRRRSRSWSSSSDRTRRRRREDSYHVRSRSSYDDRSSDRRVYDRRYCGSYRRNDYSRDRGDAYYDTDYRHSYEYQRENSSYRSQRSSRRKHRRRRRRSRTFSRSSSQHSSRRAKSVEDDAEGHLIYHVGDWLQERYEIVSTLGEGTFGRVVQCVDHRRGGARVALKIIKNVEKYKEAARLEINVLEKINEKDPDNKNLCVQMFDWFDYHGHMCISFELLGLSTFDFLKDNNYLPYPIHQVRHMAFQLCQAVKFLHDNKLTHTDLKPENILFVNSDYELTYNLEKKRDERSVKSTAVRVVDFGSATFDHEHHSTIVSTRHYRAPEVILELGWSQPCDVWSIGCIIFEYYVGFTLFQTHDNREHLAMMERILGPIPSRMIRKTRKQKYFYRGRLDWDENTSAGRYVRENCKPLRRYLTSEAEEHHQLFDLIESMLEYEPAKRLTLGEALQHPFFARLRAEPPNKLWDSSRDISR
Procedure: All reactions were performed in duplicate.

[18] = target: CLK3 (Homo sapiens, UniProt P49761); assay: CLK3 kinase activity assay (Z-lyte, Ser/Thr 18 peptide)
Sequence of CLK3 (P49761 whole entry): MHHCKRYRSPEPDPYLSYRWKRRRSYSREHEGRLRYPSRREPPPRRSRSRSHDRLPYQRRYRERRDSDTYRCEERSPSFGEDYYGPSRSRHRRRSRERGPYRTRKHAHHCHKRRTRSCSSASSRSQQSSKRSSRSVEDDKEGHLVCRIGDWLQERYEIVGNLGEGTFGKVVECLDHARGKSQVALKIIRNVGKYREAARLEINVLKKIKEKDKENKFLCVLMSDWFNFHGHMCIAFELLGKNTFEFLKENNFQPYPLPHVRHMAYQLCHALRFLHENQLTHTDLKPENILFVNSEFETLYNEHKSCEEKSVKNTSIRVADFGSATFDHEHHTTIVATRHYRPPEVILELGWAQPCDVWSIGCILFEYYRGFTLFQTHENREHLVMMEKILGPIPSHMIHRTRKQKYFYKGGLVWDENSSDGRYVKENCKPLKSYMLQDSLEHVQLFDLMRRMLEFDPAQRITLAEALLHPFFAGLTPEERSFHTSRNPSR
Procedure: Each compound was dissolved in DMSO as a 10 mM stock and used to prepare compound source plates.
This is a non-radioactive assay using fluorescence resonance energy transfer (FRET) between coumarin and fluorescein to detect kinase activity which is represented as a ratio of coumarin emission/fluorescein emission.
All reactions were performed in duplicate. Unphosphorylated (“0% Control”) and phosphorylated (“100% control”) forms of Ser/Thr 18 served as control reactions. Additionally, an 11-point dose-response curve of Staurosporine (1 uM top) was run to serve as a positive compound control.
After incubation, Development Reagent A was diluted in Development Buffer then added to the reaction and allowed to further incubate for one hour at room temperature.
Dose-response curves were generated and inhibitory concentration (IC50) values were calculated using non-linear regression curve fit in the Dotmatics' Studies Software (Bishops Stortford, UK).
Compounds were acoustically transferred on 1536-well plates (Echo 550, LabCyte) instrument. Kinase, peptide, and ATP reagents from the Z′-LYTE Kinase Assay Kits (Thermo Fisher) were dispensed onto the compound plates using an EL406 liquid dispenser (BioTek). Plates were incubated in the dark at room temperature for 1 hr. Development reagent was added to the plates and then incubated in the dark at room temperature for 1 hr. Fluorescence signal form the plate was then read using an EnVision Multilabel Plate Reader (Perkin Elmer).

[19] = HCT-116, HCT116 cell line, read-out: Colorectal cancer, EC50 (μM) HCT116
[20] = HT-29, HT29 cell line, read-out: Colorectal cancer, EC50 (μM) HT29
[21] = SW-620, SW620 cell line, read-out: Colorectal cancer, EC50 (μM) SW620
[22] = DLD-1 cell line, read-out: Colorectal cancer, EC50 (μM) DLD-1
[23] = SW48 cell line, read-out: Colorectal cancer, EC50 (μM) SW48
[24] = SW480 cell line, read-out: Colorectal cancer, EC50 (μM) SW480
[25] = A-427, A427 cell line, read-out: Lung cancer, EC50 (μM) A427
[26] = HCC78, HCC-78 cell line, read-out: Lung cancer, EC50 (μM) HCC-78
[27] = NCI-H460 cell line, read-out: Lung cancer, EC50 (μM) NCI-H460
[28] = NCI-H522 cell line, read-out: Lung cancer, EC50 (μM) NCI-H522
[29] = SNU-398, SNU398 cell line, read-out: Liver cancer, EC50 SNU398
[30] = HEPG2 cell line, read-out: Liver cancer, EC50 HEPG2
[31] = PLC/PRF/5 cell line, read-out: Liver cancer, EC50 PLC/PRF/5
[32] = BXPC-3, BxPC3 cell line, read-out: Pancreatic cancer, EC50 BxPC3
[33] = CAPAN-1, Capan1 cell line, read-out: Pancreatic cancer, EC50 Capan1
[34] = Capan-2, Capan2 cell line, read-out: Pancreatic cancer, EC50 Capan2
[35] = MIA PaCa-2 cell line, read-out: Pancreatic cancer, EC50 MIA PaCa-2
[36] = PANC 05.04 cell line, read-out: Pancreatic cancer, EC50 PANC 05.04
[37] = PANC-1 cell line, read-out: Pancreatic cancer, EC50 PANC-1
[38] = UPAFII cell line, read-out: Pancreatic cancer, EC50 UPAFII
[39] = DU-145, read-out: Prostate cancer EC50 Du-145
[40] = PC-3, PC3 cell line, inhibition of cancer cell proliferation, read-out: Prostate cancer EC50 PC3
[41] = 22Rv1 cell line, inhibition of cancer cell proliferation, read-out: Prostate cancer EC50 22Rv1
[42] = LNCap clone FGC cell line, inhibition of cancer cell proliferation, read-out: Prostate cancer EC50 LNCap clone FGC
[43] = VCaP (Sigma) cell line, inhibition of cancer cell proliferation, read-out: Prostate cancer EC50 VCaP (Sigma)
[44] = DND41, DND-41 cell line, read-out: Haematopoietic & Lymphoid tumors, EC50 (μM) DND-41
[45] = MV4-11, MV-4-11 cell line, read-out: Haematopoietic & Lymphoid tumors, EC50 (μM) MV-4-11
[46] = Rec1, REC-1 cell line, read-out: Haematopoietic & Lymphoid tumors, EC50 (μM) REC-1
[47] = SU-DHL-4, SUDHL4 cell line, read-out: Haematopoietic & Lymphoid tumors, EC50 (μM) SUDHL4
[48] = HL-60 cell line, read-out: Haematopoietic & Lymphoid tumors, EC50 (μM) HL-60
[49] = JM1 cell line, read-out: Haematopoietic & Lymphoid tumors, EC50 (μM) JM1
[50] = JURKAT, Clone E6-1 cell line, read-out: Haematopoietic & Lymphoid tumors, EC50 (μM) JURKAT, Clone E6-1
[51] = JeKo-1 cell line, read-out: Haematopoietic & Lymphoid tumors, EC50 (μM) JeKo-1
[52] = KASUMI-1 cell line, read-out: Haematopoietic & Lymphoid tumors, EC50 (μM) KASUMI-1
[53] = Loucy cell line, read-out: Haematopoietic & Lymphoid tumors, EC50 (μM) Loucy
[54] = MOLT-4 cell line, read-out: Haematopoietic & Lymphoid tumors, EC50 (μM) MOLT-4
[55] = TF-1 cell line, read-out: Haematopoietic & Lymphoid tumors, EC50 (μM) TF-1
[56] = TOLEDO cell line, read-out: Haematopoietic & Lymphoid tumors, EC50 (μM) TOLEDO
[57] = PA-1, PA1 cell line, read-out: Ovarian cancer, EC50 (μM) PA1
[58] = TOV112D, TOV-112D cell line, read-out: Ovarian cancer, EC50 (μM) TOV-112D
[59] = OV-90 cell line, read-out: Ovarian cancer, EC50 (μM) OV-90
[60] = OVCAR-3 cell line, read-out: Ovarian cancer, EC50 (μM) OVCAR-3

`CN1CC=C(c2cc(C(=O)Nc3cc4cc(-c5cncc(NC(C)(C)C)n5)cnc4cn3)ccn2)CC1` [Compound 86] gave an EC50 [1, 19] of 0.718 µM, an EC50 [1, 20] of 1.17 µM and an EC50 [1, 21] of 0.49 µM. It also gave an EC50 [1, 22] of 0.848 µM, an EC50 [1, 23] of 0.454 µM and an EC50 [1, 24] of 1.46 µM. For the same compound, the EC50 [2, 25] was 1.5 µM, the EC50 [2, 26] was 6.86 µM and the EC50 [2, 27] was 2.72 µM. For the same compound, the EC50 [2, 28] was 0.895 µM, the EC50 [3] was 2710 nM and the EC50 [4, 29] was 459 nM. For the same compound, the EC50 [4, 30] was 3860 nM, the EC50 [4, 31] was over 10000 nM and the EC50 [5, 32] was 1710 nM. For the same compound, the EC50 [5, 33] was 1890 nM, the EC50 [5, 34] was 2630 nM and the EC50 [5, 35] was 1010 nM. For the same compound, the EC50 [5, 36] was 2890 nM, the EC50 [5, 37] was 5420 nM and the EC50 [5, 38] was 983 nM. For the same compound, the EC50 [6, 39] was 2690 nM, the EC50 [6, 40] was 3350 nM and the EC50 [6, 41] was 1210 nM. The EC50 [6, 42] was 5330 nM, the EC50 [6, 43] was 2250 nM and the EC50 [7] was over 10000 nM. The EC50 [8] was over 10000 nM, the EC50 [9] was 2500 nM and the EC50 [10] was 3790 nM. It also gave an EC50 [11] of 4180 nM, an EC50 [12] of over 10000 nM and an EC50 [13] of 2890 nM. The EC50 [14] was 2130 nM, the EC50 [15, 44] was 1.37 µM and the EC50 [15, 45] was 0.292 µM. For the same compound, the EC50 [15, 46] was 0.663 µM, the EC50 [15, 47] was 1.11 µM and the EC50 [15, 48] was 2.85 µM. The EC50 [15, 49] was 0.645 µM, the EC50 [15, 50] was 2.14 µM and the EC50 [15, 51] was 0.884 µM. The EC50 [15, 52] was 1.22 µM, the EC50 [15, 53] was 1.07 µM and the EC50 [15, 54] was 1.46 µM. The EC50 [15, 55] was 2.11 µM, the EC50 [15, 56] was 0.811 µM and the EC50 [16, 57] was 1.25 µM. It also gave an EC50 [16, 58] of 1.23 µM, an EC50 [16, 59] of 6.93 µM and an EC50 [16, 60] of 1.2 µM. For the same compound, the EC50 [17] was 4.7 nM and the EC50 [18] was 11.5 nM.
Work on `Cc1cc2ncc(-c3ccc4cnc(NC(=O)c5ccnc(N6CCN(C)CC6)c5)cc4c3)cc2[nH]1` [Compound 87] yielded an EC50 [1, 19] of 0.904 µM, an EC50 [1, 20] of 1.32 µM and an EC50 [1, 21] of 0.798 µM. It also gave an EC50 [1, 22] of 1.1 µM, an EC50 [1, 23] of 0.394 µM and an EC50 [1, 24] of 1.7 µM. For the same compound, the EC50 [2, 25] was 1.12 µM, the EC50 [2, 26] was 3.41 µM and the EC50 [2, 27] was 1.17 µM. For the same compound, the EC50 [2, 28] was 0.522 µM, the EC50 [3] was 1830 nM and the EC50 [4, 29] was 177 nM. For the same compound, the EC50 [4, 30] was 6940 nM, the EC50 [4, 31] was 4290 nM and the EC50 [5, 32] was 1250 nM. For the same compound, the EC50 [5, 33] was 950 nM, the EC50 [5, 34] was 1160 nM and the EC50 [5, 35] was 759 nM. For the same compound, the EC50 [5, 36] was 2880 nM, the EC50 [5, 37] was 2630 nM and the EC50 [5, 38] was 1030 nM. The EC50 [6, 39] was 1480 nM, the EC50 [6, 40] was 1640 nM and the EC50 [6, 41] was 643 nM. For the same compound, the EC50 [6, 42] was 7840 nM, the EC50 [6, 43] was 525 nM and the EC50 [7] was 7090 nM. The EC50 [8] was 4120 nM, the EC50 [9] was 1370 nM and the EC50 [10] was 3050 nM. The EC50 [11] was 2960 nM, the EC50 [12] was 1050 nM and the EC50 [13] was 1550 nM. For the same compound, the EC50 [14] was 2650 nM, the EC50 [15, 44] was 0.538 µM and the EC50 [15, 45] was 0.542 µM. For the same compound, the EC50 [15, 46] was 0.203 µM, the EC50 [15, 47] was 0.514 µM and the EC50 [15, 48] was 2.46 µM. The EC50 [15, 49] was 0.21 µM, the EC50 [15, 50] was 1.26 µM and the EC50 [15, 51] was 0.259 µM. It also gave an EC50 [15, 52] of 1.16 µM, an EC50 [15, 53] of 0.916 µM and an EC50 [15, 54] of 1.35 µM. For the same compound, the EC50 [15, 55] was 3.93 µM, the EC50 [15, 56] was 0.337 µM and the EC50 [16, 57] was 1.36 µM. It also gave an EC50 [16, 58] of 1.43 µM, an EC50 [16, 59] of 3.65 µM and an EC50 [16, 60] of 0.866 µM. It also gave an EC50 [17] of 4.9 nM and an EC50 [18] of 38.2 nM.
